Our source for the IC50 values is patent publication US20250129021A1, “SMALL MOLECULE PROTEIN SYNTHESIS MODULATORS” (Interdict Bio, Inc., priority 2023, published 2025).

Where two headings read alike, the source gives them in different places.

What all share (assay type): biochemical
Common to all, as to conditions: HeLa S3 lysate, 2 hrs at 30° C.

For one assay, the system named is MYC. Nature of the assay: In vitro transcription-translation (IVTT) assay, MYC reporter. From the text:
(§1) All reporter constructs have been cloned into the pT7CFE1-CHis plasmid (ThermoFisher #88860) using Gibson assembly procedures (NEB #E2611L). The parental pT7CFE1-CHis plasmid contains an EMCV IRES at the 5′UTR for translation initiation, a multiple-cloning site (MCS) for gene insertion, an optional C-terminal His-epitope tag, and polyA sequence in the 3′UTR to regulate mRNA stability. All reporters are designed to be inserted at the MCS to include a red fluorescent protein (mCherry), P2A self-cleaving peptide which releases the preceding mCherry protein product, and a fusion open reading frame containing a 3×FLAG epitope, a peptide sequence of interest (TEST), and green fluorescent protein (sfGFP).
(§2) Construct Plasmid Preparation: All plasmids are isolated from MACH1 cells (ThermoFisher) grown overnight in ampicillin-containing luria broth, and purified using ZymoPure Express Plasmid Midiprep Kit (Zymo Research). Constructs are sequenced verified and diluted to a working concentration of 110 ng/μL.
(§3) HeLa S3 Lysate Preparation: HeLa S3 cell pellets are acquired from Ipracell/Ipratech (Belgium) and shipped as 4 mL frozen cell pellets on dry ice for storage at −80° C. until use. The procedure for lysate preparation is as follows. Prepare 1× Lysis Buffer, cold and stored on ice:
(§4) Each preparation takes 8 cell pellets (4 ml packed volume each, approximately 1.0×10^9 cells per pellet). Thaw cell pellets from −80° C. on ice for 90 mins. Lay pellets horizontally on top of the ice and rotate every 30 mins to ensure even thawing. Once thawed, add 4 mL of cold lysis buffer to each pellet, and using a serological pipet, gently pipet up and down to break up clumps. Incubate resuspended cells in ice for an additional 30 mins (plunged into ice). During 30 min incubation, rinse and RNase-zap (Ambion) glass dounces (use loose pestle “A”), gently dry and place on ice until needed. Prepare RNase-free Eppendorf tubes for spinning and for batch storage. Add batch labels to 1.5-1.7 mL RNase-free microcentrifuge tubes (labeling scheme below). Each batch will have an extra 1.5-1.7 mL RNase-free microcentrifuge tube for 40 μL of lysate, label the top of this tube (labeling scheme below). After 30 min incubation, transfer all 8 mL of cell pellet to dounce. Cell lysis is complete after douncing 100 times. Aliquot cell lysis into 1.5-1.7 mL temporary-microcentrifuge tubes. Place tubes in centrifuge with “fins” out, and spin at 1,200×g for 5 mins. After the first spin use a 1 mL pipet to resuspend each tube and repeat spin. This acts as an additional lysis step, is more vigorous and increases lysate yield. During second spin get liquid N2 and a fresh conical tube on ice. After spin is complete, transfer supernatant (lysate) from microcentrifuge tubes into the 50 mL conical tube and keep on ice. Repeat steps 10-14 for all other cell pellets until completed. Once all cell lysate has been transferred to the 50 mL conical tube pipet to mix so the solution is homogenous. Transfer 1 mL of lysate into batch-labeled microcentrifuge tubes and flash freeze in liquid nitrogen. Be sure to pipet up and down to mix throughout transfer step. Place all tubes in the […] for long-term storage.
(§5) In vitro transcription-translation assay setup: Each assay includes a master mix containing lysate and shared components, a 96-well plate containing compound titrations for testing, a 96-well DNA plate with reporter constructs to be tested, 96-well skirted PCR plates, and 96-well flat-bottom, black, fluorescent assay plates. […]

The test system of a further assay is MCL-1. Nature of the assay: In vitro transcription-translation (IVTT) assay, MCL-1 reporter.
Description: as §1, §2, §3, §4, §5

Another assay deals with CCND1. As to the kind of experiment: In vitro transcription-translation (IVTT) assay, CCND1 reporter.
Description: as §1, §2, §3, §4, §5

A further assay has as its system CCNTB1. As to the kind of experiment: In vitro transcription-translation (IVTT) assay, CCNTB1 reporter. The protocol:
as §4
In vitro transcription-translation assay setup: Each assay includes a master mix containing lysate and shared components, a 96-well plate containing compound titrations for testing, a 96-well DNA plate with reporter constructs to be tested, 96-well skirted PCR plates, and 96-well flat-bottom, black, fluorescent assay plates. Reaction materials setup: (A) Master mix—15 mL conical tube (3 mL of HeLa S3 Lysate described above; 0.6 mL of ThermoFisher Accessory Proteins (#88882); 1.2 ml of ThermoFisher Reaction Mix (#88882); 0.54 mL of nuclease-free Water); (B) 96-Well Master Mix+Compound Plate (Half-log dilutions (30 μM−0.1 μM) of 4 compounds of interest are prepared in 100% DMSO); 96-Well DNA Plate (Five DNA constructs are plated into single columns within the plate. Row 1 of the column contains nuclease free H2O, all other wells contain 110 ng/μL plasmid DNA). Reactions are started by mixing 155 μL of master mix and 3.5 μL of compound serial dilutions, then 9.1 μL of master mix+compound mixture is aliquoted across 5 96-well plates. Reactions begin with final addition of 2 μL of DNA for a 11.1 μL reaction volume in each well. The entire plate is sealed, and incubated for 2 hrs at 30° C. After 2 hrs, quench the assay using 45 μL of PBS, and transfer 50 μL to a flat-bottom black microplate Quantify the sfGFP and mCherry signals from each well on each plate, taking 3 reads of each plate, and perform data analysis below.
In vitro transcription-translation assay data analysis: Each plate is read three times in channels for both sfGFP and mCherry signals. The average signal across these 3 reads is then calculated for further analysis. Control wells containing no DNA reporter are subtracted from reporter wells in the same column to remove auto-fluorescence of the lysate. Then, the ratio of sfGFP/mCherry is calculated per well, and these ratios are averaged across the triplicate experiments on the same plate. Finally, the ratio of each titration concentration is normalized to the no drug control to create the normalized stalling metric. […]

[1] abbreviates: IVTT assay, MYC reporter, normalized sfGFP/mCherry ratio, half-log dilutions 30 μM-0.1 μM.

The term IC50 denotes the concentration that inhibits the measured activity by half. Turning to `COc1ccc(C[C@H]2NC[C@H](O)[C@H]2OC(=O)NCC(=O)NCC(=O)O)cc1` [V188018, {2-[({[(2R,3S,4S)-4-hydroxy-2-[(4-methoxyphenyl)methyl]pyrrolidin-3-yl]oxy}carbonyl)amino]acetamido}acetic Acid], the half-maximal inhibitory concentration (IC50) is 10 to 20 µM in the assay on MYC (setting [1]); more than 30 µM with MCL-1 (IVTT, read-out: MCL1 IC50); more than 30 µM in the assay on CCND1 (IVTT); more than 30 µM in the assay with CCNTB1.
Regarding `COc1ccc(C[C@H]2NC[C@H](O)[C@H]2OC(=O)NCC(=O)N[C@@H](C)C(=O)O)cc1` [V188019, (2S)-2-{2-[({[(2R,3S,4S)-4-hydroxy-2-[(4-methoxyphenyl)methyl]pyrrolidin-3-yl]oxy}carbonyl)amino]acetamido}propanoic acid], the IC50 was 10 to 20 µM in the assay on MYC (setting [1]); more than 30 µM with MCL-1 (IVTT, read-out: MCL1 IC50); more than 30 µM with CCND1 (IVTT); more than 30 µM in the assay with CCNTB1.
For `COc1ccc(C[C@H]2NC[C@H](O)[C@H]2OC(=O)NCc2cnc(N)nc2)cc1` [V188037, (2R,3S,4S)-4-hydroxy-2-[(4-methoxyphenyl)methyl]pyrrolidin-3-yl N-[(2-aminopyrimidin-5-yl)methyl]carbamate], the IC50 in the assay with MYC (sfGFP/mCherry ratio), with MCL-1 (sfGFP/mCherry ratio) and in the assay on CCND1 (sfGFP/mCherry ratio) was less than 10 µM each time.
Consider `COc1ccc(C[C@H]2NC[C@H](O)[C@H]2OC(=O)NCCNc2ncccn2)cc1` [V188058], for which the IC50 in the assay on MYC (sfGFP/mCherry ratio), in the assay on MCL-1 (sfGFP/mCherry ratio) and in the assay on CCND1 (sfGFP/mCherry ratio) was more than 30 µM throughout.
`COc1ccc(C[C@H]2NC[C@H](O)[C@H]2OC(=O)NCCNc2ccccn2)cc1` [V188059, (2R,3S,4S)-4-hydroxy-2-[(4-methoxyphenyl)methyl]pyrrolidin-3-yl N-[2-(pyridin-2-ylamino)ethyl]carbamate]: the half-maximal inhibitory concentration (IC50) in the assay on MYC (sfGFP/mCherry ratio), in the assay with MCL-1 (sfGFP/mCherry ratio) and in the assay on CCND1 (sfGFP/mCherry ratio) was 10 to 20 µM in each case.
In the case of `COc1ccc(C[C@H]2NC[C@H](O)[C@H]2OC(=O)NCCN[C@@H]2CCNC2)cc1` [V188073, (2R,3S,4S)-4-hydroxy-2-[(4-methoxyphenyl)methyl]pyrrolidin-3-yl N-{2-[(3R)-pyrrolidin-3-ylamino]ethyl}carbamate], the IC50 fell in the range of 10 to 20 µM with MYC (sfGFP/mCherry ratio), 10 to 20 µM with MCL-1 (sfGFP/mCherry ratio) and 20 to 30 µM in the assay on CCND1 (sfGFP/mCherry ratio).
Turning to `COc1ccc(C[C@H]2NC[C@H](O)[C@H]2OC(=O)NCCn2ccnc2C)cc1` [V188087, (2R,3S,4S)-4-hydroxy-2-[(4-methoxyphenyl)methyl]pyrrolidin-3-yl N-[2-(2-methylimidazol-1-yl)ethyl]carbamate], the IC50 in the assay with MYC (sfGFP/mCherry ratio) is 10 to 20 µM; in the assay with MCL-1 (sfGFP/mCherry ratio) it was less than 10 µM; in the assay on CCND1 (sfGFP/mCherry ratio), 20 to 30 µM.
Consider `COc1ccc(C[C@H]2NC[C@H](O)[C@H]2OC(=O)NCc2ccc(B(O)O)cc2)cc1` [V188106], for which the IC50 in the assay on MYC (sfGFP/mCherry ratio), in the assay on MCL-1 (sfGFP/mCherry ratio) and with CCND1 (sfGFP/mCherry ratio) was less than 10 µM each time.
For the compound `COc1ccc(C[C@H]2NC[C@H](O)[C@H]2OC(=O)NC[C@H]2CNC[C@@H]2O)cc1` [V188114, (2R,3S,4S)-4-hydroxy-2-[(4-methoxyphenyl)methyl]pyrrolidin-3-yl N-{[(3R,4R)-4-hydroxypyrrolidin-3-yl]methyl}carbamate], the IC50 with MYC (sfGFP/mCherry ratio) is 20 to 30 µM; in the assay with MCL-1 (sfGFP/mCherry ratio) it was 10 to 20 µM; in the assay with CCND1 (sfGFP/mCherry ratio), more than 30 µM.
As for `COc1ccc(C[C@H]2NC[C@H](O)[C@H]2OC(=O)NC[C@H]2CNC[C@H]2O)cc1` [V188115, (2R,3S,4S)-4-hydroxy-2-[(4-methoxyphenyl)methyl]pyrrolidin-3-yl N-{[(3R,4S)-4-hydroxypyrrolidin-3-yl]methyl}carbamate], the results for the IC50 with MYC (sfGFP/mCherry ratio), with MCL-1 (sfGFP/mCherry ratio) and in the assay on CCND1 (sfGFP/mCherry ratio) were more than 30 µM, 10 to 20 µM and more than 30 µM, respectively.
With `COc1ccc(C[C@H]2NC[C@H](O)[C@H]2OC(=O)NCC(F)(F)c2ccccc2)cc1` [V188165, (2R,3S,4S)-4-hydroxy-2-[(4-methoxyphenyl)methyl]pyrrolidin-3-yl N-(2,2-difluoro-2-phenylethyl)carbamate], the IC50 with MYC (setting [1]) was 20 to 30 µM; in the assay on MCL-1 (IVTT, read-out: MCL1 IC50) it was 20 to 30 µM; with CCND1 (IVTT) it was 10 to 20 µM; with CCNTB1 it was less than 10 µM.
`COc1ccc(C[C@H]2NC[C@H](O)[C@H]2OC(=O)NCc2ccc(C(N)=O)cc2)cc1` [V188296, (2R,3S,4S)-4-hydroxy-2-[(4-methoxyphenyl)methyl]pyrrolidin-3-yl N-[(4-carbamoylphenyl)methyl]carbamate]: the IC50 in the assay with MYC (setting [1]) was less than 10 µM; in the assay on MCL-1 (IVTT, read-out: MCL1 IC50) it was less than 10 µM; in the assay on CCND1 (IVTT) it was less than 10 µM; in the assay on CCNTB1, less than 10 µM.
`COc1ccc(C[C@H]2NC[C@H](O)[C@H]2OC(=O)NCC2COC2)cc1` [V188299, (2R,3S,4S)-4-hydroxy-2-[(4-methoxyphenyl)methyl]pyrrolidin-3-yl N-(oxetan-3-ylmethyl)carbamate]: the IC50 is less than 10 µM in the assay on MYC (setting [1]); less than 10 µM in the assay on MCL-1 (IVTT, read-out: MCL1 IC50); 10 to 20 µM with CCND1 (IVTT); less than 10 µM with CCNTB1.
As for `COc1ccc(C[C@H]2NC[C@H](O)[C@H]2OC(=O)NCc2nnc(C)o2)cc1` [V188303, (2R,3S,4S)-4-hydroxy-2-[(4-methoxyphenyl)methyl]pyrrolidin-3-yl N-[(5-methyl-1,3,4-oxadiazol-2-yl)methyl]carbamate], the IC50 was less than 10 µM with MYC (setting [1]); less than 10 µM in the assay on MCL-1 (IVTT, read-out: MCL1 IC50); less than 10 µM in the assay with CCND1 (IVTT); less than 10 µM in the assay on CCNTB1.
As to `COc1ccc(C[C@H]2NC[C@H](O)[C@H]2OC(=O)NC[C@H]2CCN(C)C2)cc1` [V188306], the IC50 with MYC (setting [1]) was less than 10 µM; with MCL-1 (IVTT, read-out: MCL1 IC50) it was less than 10 µM; in the assay on CCND1 (IVTT), less than 10 µM; in the assay on CCNTB1 it was less than 10 µM.
With `COc1ccc(C[C@H]2NC[C@H](O)[C@H]2OC(=O)NCc2ccc(F)c(C#N)c2)cc1` [V188310, (2R,3S,4S)-4-hydroxy-2-[(4-methoxyphenyl)methyl]pyrrolidin-3-yl N-[(3-cyano-4-fluorophenyl)methyl]carbamate], the IC50 with MYC (setting [1]) is less than 10 µM; with MCL-1 (IVTT, read-out: MCL1 IC50), less than 10 µM; in the assay on CCND1 (IVTT), less than 10 µM; in the assay on CCNTB1 it was less than 10 µM.
Regarding `O=C(NCC[C@@H]1CCCN1)O[C@@H]1[C@@H](O)CN[C@@H]1Cc1ccc(-c2ccc(S(F)(F)(F)(F)F)cc2)cc1` [V191968, (2R,3S,4S)-4-hydroxy-2-((4′-(pentafluoro-l6-sulfanyl)-[1,1′-biphenyl]-4-yl)methyl)pyrrolidin-3-yl (2-((S)-pyrrolidin-2-yl)ethyl)carbamate], the IC50 in the assay on MYC (setting [1]) and in the assay with CCNTB1 was more than 30 µM throughout.
